Source: patent US20250268844A1, “ANTICANCER AGENTS BASED ON CYCLOPENTENONES” (UNIVERSITY OF CRETE, priority 2022, published 2025)
“Also recorded” adds a separate entry of the source.

Experiments:
[1] = tested on: A2780 ovarian carcinoma cells; experiment: Cell cycle analysis by propidium iodide flow cytometry; format: cell-based, human; settings: 2.5 μM or 5 μM for 24 hours
Method: The effect of Enone-2 on cell cycle progression was tested to determine if it causes cell cycle arrest, in addition to inducing cell death. To this end, A2780 ovarian carcinoma cells were treated with 2.5 μM or 5 μM Enone-2 for 24 hours, cells were detached, fixed in 1% Neutral Buffered Formalin and stained with 5 μg/ml propidium iodide. Cell suspensions were next analyzed for fluorescence intensities (DNA content) by quantitative flow cytometry.

γH2Ax = γH2Ax immunoblot (DNA damage response marker) in A2780 cells; format: cell-based, human; settings: 6 hrs, increasing concentrations, relative to untreated controls
Method: FIG. 9. […] A2780 cells were cultured for 6 hrs in the presence of drug concentrations as indicated. (B) Effects of siRNA targeting RPL11 (siRPL11), Chek2 (siChek2) or the unrelated luciferase (Luci) genes on RPL11 and Chek2 mRNA levels quantified by RT-PCR. (C) Effects of siRpl11 on Enone-2 and oxaliplatin (OXA)-induced p53 activation. Expression levels relative to GAPDH are indicated; untreated controls (CNT) were given the arbitrary value of 1. […] Expression levels relative to GAPDH are indicated; untreated controls (CNT) were given the arbitrary value of 1.

[2] = tested on: 2780CP ovarian carcinoma cells; experiment: Combination with bortezomib in 2780CP cells; format: cell-based, human; settings: 2 hours bortezomib pre-treatment, then 48 hour co-culture with Enone-2
Method: The arrows in the microphotographs of (A) depict 2780CP cells with apoptotic morphology following treatment with 5 nM bortezomib in combination with 0.5 μM Enone-2.
Proteasome inhibitors have been reported to enhance platinum-induced toxicity in cis-platin-resistant ovarian cancer cells. […] To address this hypothesis, 2780CP ovarian carcinoma cells were pre-treated for 2 hours with different concentrations of the proteasomal inhibitor bortezomib, a drug in clinical use, followed by a 48 hour co-culture with Enone-2.

[3] = tested on: HCT15 colorectal carcinoma cells; experiment: MTT conversion assay, HCT15; format: cell-based, human; settings: Homo sapiens, HCT-15, HCT15, colon, 48 hrs treatment
Method: (§1) In particular, Enone-1 and Enone-2 were tested for cytotoxic activity in 17 cell lines representing a broad spectrum of human tumors. They include human colorectal carcinoma (Caco2, RKO, HCT15, HT29), liver (HepG2), lung (A549), ovarian carcinoma (A2780, 2780CP, AGE60, SKOV3), anaplastic large cell lymphoma (Mac1 and Mac2a), breast carcinoma (MDA-MB-231), cervical (HeLa), bladder cancer (VM-CUB-1), melanoma (BRO), and multiple myeloma (MR20).
(§2) Each assay was performed in triplicate and repeated in 2-3 independent experiments. Specifically, to measure cell survival, 20 μl of 10 mg/ml MTT (3-([…])-2,5-diphenyl tetrazolium bromide; Sigma) was added to each well and the plates were incubated at 37° C. in 5% CO2 for 3 hours. The supernatant was removed and the formed crystals were dissolved in 200 μl dimethyl sulphoxide. The plates were then analysed at 450 nm on a plate reader. Growth inhibition (reduction in survival) was calculated by expressing the differences in optical densities between treatment wells and control wells as a percentage of the control.

CDT1 = CDT1 RNA levels (qPCR) in A2780 cells; format: cell-based, human; settings: 2.5 μM for 6 or 14 hours
Method: FIG. 4. Effects of Enone-2 on cell cycle and on the expression levels of replication licensing factors (RLF). (A) Representative cell cycle profiles showing progressive accumulation of A2780 ovarian carcinoma cells in the G2/M phase of the cell cycle following 24 hour treatment with 2.5 or 5 μM Enone-2. Quantification of results is shown in the form of pie charts on the right. PI: propidium iodide. (B) & (C) A2780 cells were treated with 2.5 μM Enone-2 for 6 or 14 hours and analyzed for CDC6 protein levels by immunoblot (B), or RNA levels by reverse transcription qPCR (C). The RNA levels of the RLF CDT1 were also measured by qPCR (C). ***P<0.001; **P<0.01.
Replication licensing factors (RLF) such as CDC6, MCM2-MCM7, ORC and CDT1 form origins of DNA replication in the G1 phase of the cell cycle and initiate DNA replication during the S phase. CDC6 is also involved in S-M checkpoint mechanisms that ensure that the entire genome is replicated just once per cell division. Cancer cells frequently display deregulated expression of RLFs; for example, CDC6 is over-expressed in colorectal and ovarian carcinoma and is associated with poor patient prognosis. […] Because of these characteristics, RLFs are considered as novel targets for anti-cancer therapy. […]

[4] = tested on: Mac2a anaplastic large cell lymphoma cells; experiment: MTT conversion assay, Mac2a; format: cell-based; settings: Homo sapiens, ALCL, 48 hrs treatment
Method: as §1, §2

p53 = p53 immunoblot in AGE60 cells; format: cell-based, human; settings: 2.5 μM, 6 or 14 hr
Method: FIG. 8: Enones induce the p53 pathway. […] Cell lysates were analyzed for p53 and GAPDH (loading control). (B) A2780 cells were cultured in the presence or absence of 2.5 μM for the indicated time points before being analyzed for p53 and GAPDH levels. (C) Treatment of A2780 cells with 2.5 μM Enone-2 results in the up-regulation of p53-regulated genes (*p<0.05; **p<0.01; ***p<0.001, n=4). (D) Induction of p53 accumulation in AGE60 ovarian carcinoma cells following 6 or 14 hr exposure to 2.5 μM Enone-2. (E) Enone-1 induces the p53 pathway in A2780 cells which were cultured in the presence of 2.5 μM of the drug and analyzed as in (B). (F) Treatment of A2780 cells with 2.5 μM Enone-2 results in the up-regulation of p53-regulated genes (*p<0.05; **p<0.01; ***p<0.001, n=3).
The effects of Enone-2 on p53 and p53-dependent transcription of cell cycle and cell death-associated genes was confirmed by immunoblotting for p53 and by reverse transcription qPCR (RT-qPCR) for mdm2, p21, bax and bbc3/puma, established p53 target genes.

[5] = tested on: MDA-MB-231 breast carcinoma cells; experiment: MTT conversion assay, MDA-MB-231; format: cell-based, human; settings: Homo sapiens, 48 hrs treatment
Method: as §1, §2

[6] = tested on: HeLa cervical carcinoma cells; experiment: MTT conversion assay, HeLa; format: cell-based, human; settings: Homo sapiens, 48 hrs treatment
Method: as §1, §2

IC50 [3]: 900 nM
IC50 [4]: 2300 nM
IC50 [5]: 2500 nM
IC50 [6]: 6200 nM
SMILES: C[C@@]1(O)C=CC(=O)[C@H]1c1ccc(F)c2ccccc12 (stereo in doubt) [Enone-2, 5-(4-fluoronaphthalen-1-yl)-4-hydroxy-4-methylcyclopent-2-en-1-one]
cell cycle progression (DNA content) [1]: accumulation of cells in the G2/M phase of the cell cycle in a concentration dependent manner
γH2Ax induction (marker of DDR) (γH2Ax): no effect relative to untreated controls
cytotoxicity of combination with bortezomib compared to each agent alone [2]: augmentation of cytotoxicity compared to each agent alone; also recorded: higher cytotoxicity in relation to each agent alone
CDT1 RNA levels (CDT1): reduce CDT1 RNA levels
p53 accumulation (immunoblot) (p53): robust p53 accumulation
